Data reported in article PMC3348135, “Identification of New Agonists and Antagonists of the Insect Odorant Receptor Co-Receptor Subunit” (PLoS ONE, 2012).

Columns and labels:
Dmel\Orco + Dmel\Or35a [1] = target: T1, Dmel\Orco + Dmel\Or35a (Drosophila melanogaster, UniProt Q9VNB5); assay: Inhibition of odorant (hexanol) activation of Dmel\Orco + Dmel\Or35a in Xenopus oocytes; type: cell-based; settings: 3 µM hexanol; OLC2 100 µM, OLC15 50 µM, OLC20 200 µM
T1 construct: expressed in transfected cells; host or cells: Xenopus laevis oocytes (cRNA injection, pGEMHE)
T1 sequence (Q9VNB5 1-486): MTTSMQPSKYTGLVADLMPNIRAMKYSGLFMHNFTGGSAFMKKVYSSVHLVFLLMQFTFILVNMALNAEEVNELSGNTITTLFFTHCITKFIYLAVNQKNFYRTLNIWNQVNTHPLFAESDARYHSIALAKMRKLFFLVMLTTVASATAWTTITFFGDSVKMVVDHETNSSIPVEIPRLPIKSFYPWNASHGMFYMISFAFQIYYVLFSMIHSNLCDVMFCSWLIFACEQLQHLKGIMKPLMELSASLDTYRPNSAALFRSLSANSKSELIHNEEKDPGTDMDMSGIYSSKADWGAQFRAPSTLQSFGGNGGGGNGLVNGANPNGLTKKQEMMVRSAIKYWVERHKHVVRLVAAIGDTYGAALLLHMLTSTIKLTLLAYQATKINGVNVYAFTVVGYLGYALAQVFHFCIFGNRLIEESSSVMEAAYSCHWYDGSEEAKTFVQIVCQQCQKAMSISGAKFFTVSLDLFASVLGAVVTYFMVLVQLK
T1 sequence (Q9V3Q2 1-409 partner): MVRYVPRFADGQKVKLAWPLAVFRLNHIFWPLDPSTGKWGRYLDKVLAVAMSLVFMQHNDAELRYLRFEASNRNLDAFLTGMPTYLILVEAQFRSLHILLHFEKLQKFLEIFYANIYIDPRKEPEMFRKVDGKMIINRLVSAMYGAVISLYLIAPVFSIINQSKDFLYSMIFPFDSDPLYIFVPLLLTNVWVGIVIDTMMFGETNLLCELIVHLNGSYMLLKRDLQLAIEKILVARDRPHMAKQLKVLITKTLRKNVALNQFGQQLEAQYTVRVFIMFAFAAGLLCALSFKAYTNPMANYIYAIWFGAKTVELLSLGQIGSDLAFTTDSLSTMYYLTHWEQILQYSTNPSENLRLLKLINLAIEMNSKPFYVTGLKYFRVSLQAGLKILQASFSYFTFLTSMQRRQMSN
Protocol: (§1) Oocytes were surgically removed from mature Xenopus laevis frogs. Follicle cells were removed by treatment with Collagenase B (Boehringer Mannhem) for 2 hours at room temperature. Capped cRNA encoding each DmOR subunit was generated using mMessage mMachine kits (Ambion). For heteromeric ORs, 25 ng of cRNA encoding each OR subunit was injected into Stage V-VI Xenopus oocytes. For expression of Orco alone, 50 ng of cRNA was injected. Oocytes were incubated at 18°C in Barth’s saline (in mM: 88 NaCl, 1 KCl, 2.4 NaHCO3, 0.3 CaNO3, 0.41 CaCl2, 0.82 MgSO4, 15 HEPES, pH 7.6, and 150 µg/ml ceftazidime) for 2–5 days prior to electrophysiological recording.
(§2) Odorant and Orco ligand induced currents were recorded under two-electrode voltage clamp in Xenopus laevis oocytes expressing ORs, using an automated parallel electrophysiology system (OpusExpress 6000A; Molecular Devices). Oocytes were perfused with ND96 (in mM: 96 NaCl, 2 KCl, 1 CaCl2, 1 MgCl2, 5 HEPES, pH 7.5). Odorant stock solutions (0.5 or 1 M) and Orco ligand stock solutions (100 mM) were prepared in DMSO and diluted in ND96. Unless otherwise noted, applications were for 60 sec at a flow rate of 1.0 ml/min, with extensive washing in ND96 (9 or 20 min at 4.6 ml/min) between applications. Micropipettes were filled with 3 M KCl and had resistances of 0.2−2.0 MΩ. The holding potential was −70 mV. Current responses, filtered (4-pole, Bessel, low pass) at 20 Hz (−3 db) and sampled at 100 Hz, were captured and stored using OpusXpress 1.1 software (Molecular Devices).
In inhibition assays, oocytes were exposed to 60 sec applications of OLC12 with 9 min washes between applications (Fig. 3 and 4) or 60 sec applications of odorant with 20 min washes between applications (Fig. 5). […]
Initial analysis of electrophysiological data was done using Clampfit 9.1 software (Molecular Devices). […] Statistical significance was assessed using a two-tailed unpaired t test, an F test, or a one-way analysis of variance followed by the Bonferroni’s post-test, as appropriate.

Cqui\Orco + Cqui\Or10 = Cqui\Orco + Cqui\Or10 (Culex quinquefasciatus, UniProt D5LMR7+Q309I4); assay: Activation of Cqui\Orco + Cqui\Or10 in Xenopus oocytes, two-electrode voltage clamp; type: cell-based; settings: 100 µM compound, mean ± SEM, n=3-8; for Emax at 100 µM: read-out: Response amplitude as percentage of response to 100 µM OLC3, Cqui\Orco + Cqui\Or10
Chain of Cqui\Orco + Cqui\Or10 (D5LMR7 entry or part of it): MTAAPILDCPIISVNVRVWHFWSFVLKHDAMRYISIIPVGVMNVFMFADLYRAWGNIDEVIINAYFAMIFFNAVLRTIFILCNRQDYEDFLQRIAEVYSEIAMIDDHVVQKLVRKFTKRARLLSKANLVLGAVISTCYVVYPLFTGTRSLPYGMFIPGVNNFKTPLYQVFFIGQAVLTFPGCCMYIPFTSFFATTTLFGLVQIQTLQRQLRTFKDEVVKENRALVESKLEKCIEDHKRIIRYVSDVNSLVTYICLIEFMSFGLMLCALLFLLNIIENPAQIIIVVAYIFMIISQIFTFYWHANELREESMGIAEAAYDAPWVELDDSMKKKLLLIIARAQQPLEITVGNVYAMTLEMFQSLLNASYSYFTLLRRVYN
Chain of Cqui\Orco + Cqui\Or10 (Q309I4 entry or part of it): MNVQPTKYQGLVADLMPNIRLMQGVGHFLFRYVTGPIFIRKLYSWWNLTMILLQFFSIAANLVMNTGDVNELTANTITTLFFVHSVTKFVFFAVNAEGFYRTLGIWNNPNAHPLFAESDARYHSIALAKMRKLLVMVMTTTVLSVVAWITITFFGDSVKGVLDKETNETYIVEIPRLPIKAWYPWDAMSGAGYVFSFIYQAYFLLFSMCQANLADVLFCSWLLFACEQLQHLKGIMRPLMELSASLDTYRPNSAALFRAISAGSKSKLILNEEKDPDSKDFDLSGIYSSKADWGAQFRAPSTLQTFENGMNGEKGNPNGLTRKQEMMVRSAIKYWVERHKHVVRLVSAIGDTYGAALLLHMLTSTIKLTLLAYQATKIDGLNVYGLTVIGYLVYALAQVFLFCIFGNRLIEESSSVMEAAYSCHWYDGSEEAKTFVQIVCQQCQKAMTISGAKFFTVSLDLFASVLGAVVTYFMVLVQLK
Protocol: as §1, §2
(§3) Initial analysis of electrophysiological data was done using Clampfit 9.1 software (Molecular Devices). Curve fitting and statistical analyses were done using Prism 5 (Graphpad). Concentration-response data were fit to the equation: I = Imax/(1+(EC50/X)^n) where I represents the current response at a given concentration of odorant, X; Imax is the maximal response; EC50 is the concentration of agonist yielding a half maximal response; n is the apparent Hill coefficient. Concentration-inhibition data were fit to the equation: I = Imax/(1+(X/IC50)^n) where I represents the current response at a given concentration of inhibitor, X; Imax is the maximal response in the absence of inhibitor; IC50 is the concentration of inhibitor present that still allows a half maximal response from odorant; n is the apparent Hill coefficient. Statistical significance was assessed using a two-tailed unpaired t test, an F test, or a one-way analysis of variance followed by the Bonferroni’s post-test, as appropriate.

Dmel\Orco [2] = target: T2, Dmel\Orco (Drosophila melanogaster, UniProt Q9VNB5); assay: Inhibition of OLC12 activation of Dmel\Orco in Xenopus oocytes; type: cell-based; settings: activated by 30 µM OLC12 (EC39)
T2 construct: expressed in transfected cells; host or cells: Xenopus laevis oocytes (cRNA injection, pGEMHE)
T2 sequence (Q9VNB5 1-486): T1 sequence (Q9VNB5 1-486)
Protocol: as §1, §2
(§4) In inhibition assays, oocytes were exposed to 60 sec applications of OLC12 with 9 min washes between applications (Fig. 3 and 4) or 60 sec applications of odorant with 20 min washes between applications (Fig. 5). Oocytes were then exposed to a 90 sec application of antagonist candidate, immediately followed by a 60 sec co-application of antagonist candidate and OLC12 or odorant. Oocytes were then exposed to a final 60 sec application of OLC12 or odorant. The current response in the presence of antagonist candidate was compared to the preceding response(s) to OLC12 (or odorant) alone.
as §3

Dmel\Orco + Dmel\Or35a [3] = target: T1, Dmel\Orco + Dmel\Or35a; assay: Agonist activation of Dmel\Orco + Dmel\Or35a in Xenopus oocytes, two-electrode voltage clamp; type: cell-based; settings: for Emax at 100 µM: read-out: Response amplitude as percentage of response to 100 µM OLC3, Dmel\Orco + Dmel\Or35a; for Response amplitude as percentage of response to 100 µM OLC3, Dmel\Orco + Dmel\Or35a: 100 µM compound, mean ± SEM, n=3-8
Protocol: as §1, §2, §3

Cqui\Orco = assay: Agonist activation of homomeric Cqui\Orco in Xenopus oocytes, two-electrode voltage clamp; type: cell-based, Culex quinquefasciatus; settings: 100 µM compound; mean ± SEM, n=3-8
Dmel\Orco [4] = target: T2, Dmel\Orco; assay: Agonist activation of homomeric Dmel\Orco in Xenopus oocytes, two-electrode voltage clamp; type: cell-based; settings: for Emax at 100 µM: read-out: Response amplitude as percentage of response to 100 µM OLC3, Dmel\Orco; for Response amplitude as percentage of response to 100 µM OLC3, Dmel\Orco: 100 µM compound, mean ± SEM, n=3-8
Protocol: as §1, §2, §3

Dmel\Orco + Dmel\Or35a [5] = target: T1, Dmel\Orco + Dmel\Or35a; assay: Inhibition of OLC12 activation of Dmel\Orco + Dmel\Or35a in Xenopus oocytes; type: cell-based; settings: activated by 10 µM OLC12 (EC25); read-out: IC50, Dmel\Orco + Dmel\Or35a (activated by 10 µM OLC12)
Protocol: as §1, §2, §4, §3

Onub\Orco + Onub\Or1 = assay: Agonist activation of Onub\Orco + Onub\Or1 in Xenopus oocytes, two-electrode voltage clamp; type: cell-based, Ostrinia nubilalis; settings: 100 µM compound; mean ± SEM, n=3-8

Row | Compound | Inhibition of the hexanol response of Dmel\Orco+Dmel\Or35a (Dmel\Orco + Dmel\Or35a [1]) | Emax at 100 µM (Cqui\Orco + Cqui\Or10) | IC50 (Dmel\Orco [2]) | Emax at 100 µM (Dmel\Orco + Dmel\Or35a [3]) | Response amplitude as percentage of response to 100 µM OLC3, Cqui\Orco (Cqui\Orco) | Emax at 100 µM (Dmel\Orco [4]) | IC50 (Dmel\Orco + Dmel\Or35a [5]) | Response amplitude as percentage of response to 100 µM OLC3, Cqui\Orco + Cqui\Or10 (Cqui\Orco + Cqui\Or10) | Response amplitude as percentage of response to 100 µM OLC3, Dmel\Orco + Dmel\Or35a (Dmel\Orco + Dmel\Or35a [3]) | Response amplitude as percentage of response to 100 µM OLC3, Onub\Orco + Onub\Or1 (Onub\Orco + Onub\Or1) | Response amplitude as percentage of response to 100 µM OLC3, Dmel\Orco (Dmel\Orco [4])
1 | CCc1ccc(NC(=O)c2cccs2)cc1 [OLC20] | substantial inhibition | 11 ± 4% | 57 ± 19 µM | 0% | 0% | 0% | 55 ± 15 µM |  |  |  | 
2 | CCn1c(SCC(=O)Nc2ccc(C)cc2)nnc1-c1cccnc1 [OLC5] |  |  |  |  | 0% |  |  | 16 ± 2% | 4 ± 1% | 4 ± 2% | 0%
3 | CC(C)c1ccc(NC(=O)CSc2nnnn2C)cc1 [OLC21] |  |  |  |  | 0% |  |  | 0% | 0% |  | 0%
4 | CCn1c(SCC(=O)Nc2ccc(Cl)cc2)nnc1-c1cccnc1 [OLC11] |  |  |  |  | 0% |  |  | 13 ± 3% | 13 ± 2% |  | 0%
5 | C=CCn1c(S)nnc1-c1cccnc1 [OLC17] |  |  |  |  | 3 ± 2% |  |  | 0% | 0% |  | 0%
6 | CCCCc1ccc(NC(=O)CSc2nnc(-c3cccnc3)n2CC)cc1 [OLC9] |  | 0% | 69 ± 7 µM | 5 ± 2% | 0% | 0% | 40 ± 9 µM |  |  | 3 ± 1% | 
7 | Cn1cnnc1-c1ccncc1 [OLC18] |  |  |  |  | 0% |  |  | 0% | 0% |  | 0%
8 | Cc1nnc(-c2ccccn2)[nH]1 [OLC23] |  |  |  |  | 0% |  |  | 8 ± 3% | 0% |  | 0%
9 | Sc1nnc(-c2cccnc2)[nH]1 [OLC16] |  |  |  |  | 3 ± 2% |  |  | 0% | 0% |  | 0%
